The text below walks through data of patent US9809598B2 (Merck Patent GmbH, priority 2014, dated 2017).

The test system of one experiment is Tankyrases. As to conditions: read-out: EC50 [M] TNKS cellular assay; DLD1 cells, 24 hours, Axin2 increase.
In a further experiment the target is T1, PARP-1 (Homo sapiens, UniProt P09874).
T1 construct: purchased Enzo Life Sciences GmbH, Lörrach, Germany
Put plainly: PARP-1 autoparsylation assay (HTRF). The experiment is classed as biochemical. The settings on record: His-tagged Parp-1, autoparsylation HTRF. A digest of the protocol: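 His-tagged enzyme auto-modifies itself using biotinylated NAD/NAD; product detected by TR-FRET between cryptate anti-His antibody and Xlent-streptavidin, as emission ratio.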
(In general: TR-FRET usually uses a lanthanide donor and a delayed reading to cut background.)

The target of another experiment is T2, TNKS2 (Homo sapiens, UniProt Q9H2K2).
T2 construct: GST-tagged Tnks-2 (873-1166 aa, prepared in-house); made in house
T2 sequence (Q9H2K2 873-1166): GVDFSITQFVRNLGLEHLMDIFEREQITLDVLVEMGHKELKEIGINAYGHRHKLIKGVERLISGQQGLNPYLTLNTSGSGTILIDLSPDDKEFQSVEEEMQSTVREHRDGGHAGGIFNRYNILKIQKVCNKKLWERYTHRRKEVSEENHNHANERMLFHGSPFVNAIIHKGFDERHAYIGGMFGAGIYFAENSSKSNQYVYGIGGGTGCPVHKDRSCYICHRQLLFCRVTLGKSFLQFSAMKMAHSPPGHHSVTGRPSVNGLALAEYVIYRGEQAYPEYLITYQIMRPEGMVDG
The experiment can be described thus: TNKS2 activity ELISA (autoparsylation assay). The experiment is classed as biochemical. The settings on record: GST-tagged Tnks-2 (873-1166 aa); read-out: IC50 [M] TNKS2 ELISA. In a few lines: (§1)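 GST-tagged TNKS1 or TNKS2 captured on glutathione plates and allowed to auto-PARsylate with biotinylated NAD with or without compound. Biotin-ADP-ribosylated enzyme detected by streptavidin-HRP and luminescence; IC50 relative to inhibitor-free reaction.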
For orientation: In an ELISA, binding on a coated surface is turned into a signal by an enzyme label.

Another experiment addresses T3, TNKS1 (Homo sapiens, UniProt O95271).
T3 construct: GST-tagged Tnks-1 (1023-1327 aa, prepared in-house); made in house
Put plainly: TNKS1 activity ELISA (autoparsylation assay). The experiment is classed as biochemical. As to conditions: GST-tagged Tnks-1 (1023-1327 aa). In a few lines: as §1

T1 sequence (P09874 whole entry): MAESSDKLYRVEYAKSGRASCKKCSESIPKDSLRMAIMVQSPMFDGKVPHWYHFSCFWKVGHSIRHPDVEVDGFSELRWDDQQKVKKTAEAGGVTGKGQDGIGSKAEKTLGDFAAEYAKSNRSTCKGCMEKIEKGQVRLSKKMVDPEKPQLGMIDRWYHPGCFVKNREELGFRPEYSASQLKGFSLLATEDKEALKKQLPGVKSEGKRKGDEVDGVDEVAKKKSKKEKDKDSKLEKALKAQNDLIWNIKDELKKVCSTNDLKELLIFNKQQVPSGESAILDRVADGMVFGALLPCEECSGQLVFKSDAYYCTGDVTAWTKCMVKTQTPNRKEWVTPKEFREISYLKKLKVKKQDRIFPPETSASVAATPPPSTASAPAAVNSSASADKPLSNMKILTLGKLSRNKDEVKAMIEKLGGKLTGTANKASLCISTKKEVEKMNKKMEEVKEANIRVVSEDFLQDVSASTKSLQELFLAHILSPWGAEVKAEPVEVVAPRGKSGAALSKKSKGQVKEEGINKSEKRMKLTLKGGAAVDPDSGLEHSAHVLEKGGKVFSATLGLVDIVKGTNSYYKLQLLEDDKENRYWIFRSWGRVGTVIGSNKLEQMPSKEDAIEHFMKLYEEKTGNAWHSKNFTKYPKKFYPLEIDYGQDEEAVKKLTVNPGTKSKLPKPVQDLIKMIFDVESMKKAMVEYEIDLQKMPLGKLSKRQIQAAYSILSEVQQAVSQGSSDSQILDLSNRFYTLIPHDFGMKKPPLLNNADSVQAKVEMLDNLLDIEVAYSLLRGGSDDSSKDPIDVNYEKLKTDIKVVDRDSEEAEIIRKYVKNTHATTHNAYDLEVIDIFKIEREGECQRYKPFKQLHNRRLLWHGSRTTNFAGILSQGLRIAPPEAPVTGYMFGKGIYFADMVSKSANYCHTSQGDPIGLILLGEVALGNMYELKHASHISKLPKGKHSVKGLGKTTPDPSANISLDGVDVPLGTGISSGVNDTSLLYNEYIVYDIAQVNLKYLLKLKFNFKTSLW
T3 sequence (O95271 1023-1327): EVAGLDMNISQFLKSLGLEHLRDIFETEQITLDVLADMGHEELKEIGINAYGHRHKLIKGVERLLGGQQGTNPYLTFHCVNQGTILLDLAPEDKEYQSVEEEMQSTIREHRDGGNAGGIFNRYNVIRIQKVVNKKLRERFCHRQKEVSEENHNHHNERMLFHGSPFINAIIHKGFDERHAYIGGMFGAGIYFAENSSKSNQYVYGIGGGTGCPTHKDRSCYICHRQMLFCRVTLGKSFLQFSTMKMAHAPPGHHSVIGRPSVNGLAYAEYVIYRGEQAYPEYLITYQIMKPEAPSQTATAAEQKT

On to `O=C(c1ccc(F)cc1)C1CCN(C(=O)CCCc2nn3cccc3c(=O)[nH]2)CC1` [Compound C142, 2-{4-[4-(4-Fluoro-benzoyl)-piperidin-1-yl]-4-oxo-butyl}-3H-pyrrolo[2,1-f][1,2,4]triazin-4-one], for which, in the experiment on Tankyrases, the EC50 is 2e-08 M. Moreover, the IC50 worked out at 7200 nM at PARP-1, 1.4e-08 M at TNKS2 and 14 nM at TNKS1.

`COc1ccc(C(=O)C2CCN(C(=O)CCCc3nn4cc(C)cc4c(=O)[nH]3)CC2)cn1` [Compound C159, 2-{4-[4-(6-Methoxy-pyridine-3-carbonyl)-piperidin-1-yl]-4-oxo-butyl}-6-methyl-3H-pyrrolo[2,1-f][1,2,4]triazin-4-one]: the EC50 in the experiment with Tankyrases stood at 3.6e-08 M. Besides, the IC50 at PARP-1 stood at 2200 nM; at TNKS2, 2.7e-09 M; on TNKS1, 1.2 nM.

In the case of `Cn1ncc2c(=O)[nH]c(CCCC(=O)N3CCC(C(=O)c4ccc(C(C)(F)F)cc4)CC3)nc21` [Compound C245, 6-(4-{4-[4-(1,1-Difluoro-ethyl)-benzoyl]-piperidin-1-yl}-4-oxo-butyl)-1-methyl-1,5-dihydro-pyrazolo[3,4-d]pyrimidin-4-one], the EC50 with Tankyrases came out at 4.8e-09 M. The IC50 at PARP-1 came out at 5800 nM; at TNKS2, 1.7e-10 M; against TNKS1, 0.41 nM.

In the case of `Cn1cc(C(=O)C2CCN(C(=O)CCCc3nc4c(c(=O)[nH]3)COCC4)CC2)cn1` [Compound C202, 2-{4-[4-(1-Methyl-1H-pyrazole-4-carbonyl)-piperidin-1-yl]-4-oxo-butyl}-3,5,7,8-tetrahydro-pyrano[4,3-d]pyrimidin-4-one], the EC50 in the experiment on Tankyrases is 2.2e-06 M. Also, the figures for the IC50 against PARP-1, at TNKS2 and on TNKS1 were 18000 nM, 3.1e-09 M and 8.1 nM, respectively.

Regarding `COc1ccc(C(=O)C2CCN(C(=O)CCCc3nc4c(C)csc4c(=O)[nH]3)CC2)cn1` [Compound C126, 2-{4-[4-(6-Methoxypyridine-3-carbonyl)-1-piperidyl]-4-oxo-butyl}-7-methyl-3H-thieno[3,2-d]pyrimidin-4-one], the EC50 with Tankyrases was 1.3e-08 M. The IC50 against PARP-1 stood at 560 nM; on TNKS2, 1.6e-10 M; against TNKS1 it was 0.23 nM.

Take `Cc1cc2c(=O)[nH]c(CCCC(=O)N3CCC(C(=O)c4ccc(C(C)(C)O)cc4)CC3)nn2c1` [Compound C166, 2-(4-{4-[4-(1-Hydroxy-1-methyl-ethyl)-benzoyl]-piperidin-1-yl}-4-oxo-butyl)-6-methyl-3H-pyrrolo[2,1-f][1,2,4]triazin-4-one]: the concentration giving a half-maximal response (EC50) with Tankyrases is 1.8e-07 M. The results for the IC50 on PARP-1, at TNKS2 and against TNKS1 were 1400 nM, 1.7e-08 M and 12 nM, respectively.

On to `Cc1ccc2c(=O)[nH]c(CCCC(=O)N3CCC(C(=O)c4cnn(C(C)C)c4)CC3)nn12` [Compound C223, 2-{4-[4-(1-Isopropyl-1H-pyrazole-4-carbonyl)-piperidin-1-yl]-4-oxo-butyl}-7-methyl-3H-pyrrolo[2,1-f][1,2,4]triazin-4-one], for which the EC50 in the experiment with Tankyrases amounted to 3.3e-09 M. Besides, the IC50 against PARP-1 was determined as 840 nM; at TNKS2, 5.1e-10 M; against TNKS1, 0.6 nM.

Regarding `Cn1ncc2c(=O)[nH]c(CCCC(=O)N3CCC(Oc4ccc(C#N)cc4)CC3)nc21` [Compound C47, 4-{1-[4-(1-Methyl-4-oxo-4,5-dihydro-1H-pyrazolo[3,4-d]pyrimidin-6-yl)-butyryl]-piperidin-4-yloxy}-benzonitrile], the 50% effective concentration (EC50) with Tankyrases was found to be 4.5e-07 M. For the same compound, the IC50 on PARP-1 was determined as 4400 nM; at TNKS2 it was 4.1e-08 M; on TNKS1, 110 nM.

On to `CC(C)(O)c1ccc(C(=O)C2CCN(C(=O)CCCc3nn4cc(F)cc4c(=O)[nH]3)CC2)cc1` [Compound C177, 6-Fluoro-2-(4-{4-[4-(1-hydroxy-1-methyl-ethyl)-benzoyl]-piperidin-1-yl}-4-oxo-butyl)-3H-pyrrolo[2,1-f][1,2,4]triazin-4-one], for which the EC50 in the experiment with Tankyrases amounted to 6.7e-08 M. The IC50 at PARP-1 stood at 8000 nM; on TNKS2, 4.8e-09 M; against TNKS1, 7.1 nM.

Regarding `Cc1csc2c(=O)[nH]c(CCCC(=O)N3CCC(C(=O)c4ccc(C(C)(C)O)cc4)CC3)nc12` [Compound C133, 2-{4-{4-[4-(1-Hydroxy-1-methyl-ethyl)benzoyl]-1-piperidyl}-4-oxo-butyl}-7-methyl-3H-thieno[3,2-d]pyrimidin-4-one], the EC50 in the experiment on Tankyrases was 6.4e-08 M. For the same compound, the IC50 is 1000 nM at PARP-1, 7.5e-10 M on TNKS2 and 2.1 nM on TNKS1.

Turning to `COc1ccc(C(=O)C2CCN(C(=O)CCCc3nc(C)c(C)c(=O)[nH]3)CC2)cc1` [Compound C239, 2-{4-[4-(4-Methoxy-benzoyl)-piperidin-1-yl]-4-oxo-butyl}-5,6-dimethyl-3H-pyrimidin-4-one], the concentration for a half-maximal effect (EC50) with Tankyrases was 1.5e-08 M. Also, the IC50 against PARP-1 stood at 24000 nM; at TNKS2, 8.2e-10 M; on TNKS1 it was 2.6 nM.

Consider `COc1ccc(C(=O)C2CN(C(=O)CCCc3cn4cccc4c(=O)[nH]3)C2)cc1` [Compound D1, 3-{4-[3-(4-Methoxy-benzoyl)-azetidin-1-yl]-4-oxo-butyl}-2H-pyrrolo[1,2-a]pyrazin-1-one], for which the EC50 with Tankyrases was 5.4e-07 M. The IC50 on PARP-1 was 3100 nM; at TNKS2, 8.5e-08 M; on TNKS1, 120 nM.

As for `N#Cc1cc(C2CCN(C(=O)CCCc3nn4cc(F)cc4c(=O)[nH]3)CC2)cnc1N` [Compound C171, 6-Amino-1′-[4-(6-fluoro-4-oxo-3,4-dihydro-pyrrolo[2,1-f][1,2,4]triazin-2-yl)-butyryl]-1′,2′,3′,4′,5′,6′-hexahydro-[3,4′]bipyridinyl-5-carbonitrile], the EC50 in the experiment on Tankyrases stood at 4.6e-08 M. The IC50 against PARP-1 came to 6300 nM; on TNKS2, 3.6e-09 M; at TNKS1, 1.7 nM.

In the case of `Cc1nc(CCCC(=O)N2CCC(C(=O)c3ccc(F)cc3)CC2)[nH]c(=O)c1C` [Compound C240, 2-{4-[4-(4-Fluoro-benzoyl)-piperidin-1-yl]-4-oxo-butyl}-5,6-dimethyl-3H-pyrimidin-4-one], in the experiment on Tankyrases, the EC50 worked out at 5.8e-07 M. Moreover, the IC50 against PARP-1 was 19000 nM; at TNKS2, 5.3e-09 M; on TNKS1, 14 nM.

Turning to `N#Cc1cc(C2CCN(C(=O)CCCc3nn4cccc4c(=O)[nH]3)CC2)cnc1N` [Compound C138, 6-Amino-1′-[4-(4-oxo-3,4-dihydro-pyrrolo[2,1-f][1,2,4]triazin-2-yl)-butyryl]-1′,2′,3′,4′,5′,6′-hexahydro-[3,4′]bipyridinyl-5-carbonitrile], in the experiment with Tankyrases, the EC50 worked out at 5.2e-08 M. The IC50 came out at 3200 nM on PARP-1, 2.6e-09 M at TNKS2 and 2.2 nM on TNKS1.

In the case of `COc1ccc(C(=O)C2CCN(C(=O)CCCc3cn4cccc4c(=O)[nH]3)CC2)cn1` [Compound C15, 3-{4-[4-(6-Methoxy-pyridine-3-carbonyl)-piperidin-1-yl]-4-oxo-butyl}-2H-pyrrolo[1,2-a]pyrazin-1-one], the EC50 in the experiment with Tankyrases amounted to 1.5e-09 M. Besides, the IC50 amounted to 1700 nM at PARP-1, 1.7e-10 M at TNKS2 and 0.23 nM at TNKS1.

For the compound `O=C(CCCc1nn2cc(F)cc2c(=O)[nH]1)N1CCC(c2nnc(-c3ccccc3)o2)CC1` [Compound C173, 6-Fluoro-2-{4-oxo-4-[4-(5-phenyl-[1,3,4]oxadiazol-2-yl)-piperidin-1-yl]-butyl}-3H-pyrrolo[2,1-f][1,2,4]triazin-4-one], the EC50 in the experiment on Tankyrases was found to be 8.5e-08 M. For the same compound, the IC50 amounted to 3200 nM against PARP-1, 1.4e-08 M on TNKS2 and 15 nM against TNKS1.

In the case of `COc1ccc(C(=O)C2CCN(C(=O)CCCc3nn4c(C)ccc4c(=O)[nH]3)CC2)cc1` [Compound C37, 2-{4-[4-(4-Methoxybenzoyl)-piperidin-1-yl]-4-oxo-butyl}-7-methyl-3H-pyrrolo[2,1-f][1,2,4]triazin-4-one], the EC50 in the experiment on Tankyrases came to 1e-09 M. Besides, the IC50 at PARP-1 is 620 nM; on TNKS2, under 1e-10 M; against TNKS1, under 0.1 nM.

In the case of `Cc1ccc(C(=O)C2CCN(C(=O)CCCc3nn4cccc4c(=O)[nH]3)CC2)cc1` [Compound C235, 2-{4-[4-(4-Methyl-benzoyl)-piperidin-1-yl]-4-oxo-butyl}-3H-pyrrolo[2,1-f][1,2,4]triazin-4-one], the EC50 in the experiment on Tankyrases came to 3.9e-09 M. For the same compound, the IC50 against PARP-1 came out at 3000 nM; on TNKS2 it was 3.9e-10 M; against TNKS1 it was 0.57 nM.

Take `Nc1ncc(C2CCN(C(=O)CCCc3nn4cccc4c(=O)[nH]3)CC2)cc1-c1ncccn1` [Compound C139, 2-[4-(6-Amino-5-pyrimidin-2-yl-3′,4′,5′,6′-tetrahydro-2′H-[3,4′]bipyridinyl-1′-yl)-4-oxo-butyl]-3H-pyrrolo[2,1-f][1,2,4]triazin-4-one]: in the experiment with Tankyrases, the EC50 stood at 3.4e-09 M. In addition, the IC50 came out at 3200 nM against PARP-1, 2.6e-10 M on TNKS2 and 0.23 nM against TNKS1.

`N#Cc1ccc(OC2CCN(C(=O)CCCc3nn4cc(F)cc4c(=O)[nH]3)CC2)cc1` [Compound C174, 4-{1-[4-(6-Fluoro-4-oxo-3,4-dihydro-pyrrolo[2,1-f][1,2,4]triazin-2-yl)-butyryl]-piperidin-4-yloxy}-benzonitrile]: the EC50 in the experiment on Tankyrases turned out to be 7.8e-07 M. Besides, the half-inhibitory concentration (IC50) is 270 nM at PARP-1, 4.9e-08 M at TNKS2 and 64 nM against TNKS1.

In general, EC50 refers to the concentration at which the effect is half-maximal. As a reminder, the IC50 is the point on the concentration scale where inhibition reaches its midpoint.
